Patent USRE48461E1, “Modulation of androgen receptor expression” (Ionis Pharmaceuticals, Inc., priority 2012, dated 2021)

Legend:
AR mRNA = assay: Time-course AR mRNA expression in C4-2B cells (8, 24, 48 hours); type: cell-based, human; settings: C4-2B cells
Description: C4-2B cells were plated at 1,000 cells per well in complete medium. […] After a treatment period of 8 hours, 24 hours, and 48 hours, AR expression was measured with primer probe set hAR-LTS00943.

22RV1 cells = assay: 22RV1 cell proliferation, ASO in combination with MDV3100 (Example 22); type: cell-based, human; settings: for Proliferation (% untreated control) in 22RV1 without MDV-3100: RNAiMAX, 3 days
Description: 22RV1 cells were plated at 2,000 cells per well in 5% CSS medium for 48 hours. […] ISIS 549148 was included as a negative control. […] After a treatment period of 3 days, the proliferative capacity of the cancer cells was measured with CellTiter 96® AQueous One Solution Cell Proliferation kit (Promega), following the manufacturer's instructions. Results are presented in Tables 58-62 as percent inhibition of proliferation, relative to non-treated cells.

AR V7 variant mRNA = assay: AR V7 variant RNA in VCaP cells; type: cell-based, human; settings: RNAiMax, 48 hrs
Description: Cells were plated at 10,000 cells per well. […] ISIS 549148 was included as a negative control. After an incubation period of 48 hrs, RNA levels of full length AR, the V7 variant, PSA and TMPRSS2 were measured.
A separate set of cells was treated with MDV-3100 at 0.04 μM, 0.2 μM, 1.0 μM, or 5.0 μM. After an incubation period of 48 hrs, RNA levels of full length AR, the V7 variant, PSA and TMPRSS2 were measured. The data is presented in Tables 108 expressed as percent expression of gene levels compared to the untreated control.
Cells were plated at 15,000 cells per well and cultured in CSS media for 16 hours. […] ISIS 549148 was included as a negative control. After 4 hrs, 1 nM DHT was added. […] After an incubation period of 48 hrs, RNA levels of AR, PSA and TMPRSS2 were measured. […]

MDA-MB-453 tumor = assay: Tumor volume in MDA-MB-453 breast cancer orthotopic model; type: in vivo, NSG mice; settings: Study 2, MDA-MB-453 model, NSG mice, 50 mg/kg s.c. 5 days per week for 2 weeks
TMPRSS2 mRNA = assay: TMPRSS2 expression in LNCaP cells (complete, CSS+DHT medium); type: cell-based, human; settings: for Percent inhibition of TMPRSS2 expression in LNCaP cells cultured in CSS + DHT medium: CSS + DHT (1 nM) medium, 48 hrs; for Percent inhibition of TMPRSS2 expression in LNCaP cells cultured in complete medium: 48 hours
Description: Cells were plated at 1,000 cells per well. […] ISIS 549148 was included as a negative control. […] After an incubation period of 48 hours, RNA levels of AR, PSA and TMPRSS2 were measured.
Cells were plated at 2,000 cells per well and cultured in phenol red-free RPMI supplemented with 5% charcoal stripped serum (Gibco) media for 16 hours. […] ISIS 549148 was included as a negative control. […] After an incubation period of 4 hrs, DHT was added to the medium to a final concentration of 1 nM as indicated. RNAs were collected 48 hrs later and levels of AR, PSA and TMPRSS2 were measured. In the absence of DHT, AR expression in LNCaP cells was 95%, PSA expression was 7% and TMPRSS2 expression was 24% compared to the untreated control.

In the case of “GGCTACTACGCCGTCA (3-10-3 (S)-cEt gapmer, chemistry not fully specified) [ISIS 549148, reference compound]”, the “Percent expression of AR compared to the control group in 8 hours” value (“Percent expression of AR … in 8 hours” for short) (AR mRNA; 0.04 μM) is reported as 116%, the “Percent expression of AR compared to the control group in 24 hours” value (from here on “Percent expression of AR … in 24 hours”) (AR mRNA; 0.04 μM) is reported as 87% and the “Percent expression of AR compared to the control group in 48 hours” value (from here on “Percent expression of AR … in 48 hours”) (AR mRNA; 0.04 μM) is reported as 98%. For the same sequence, the “Percent expression of AR … in 8 hours” value (AR mRNA; 0.2 μM) was 105%, the “Percent expression of AR … in 24 hours” value (AR mRNA; 0.2 μM) was 85% and the “Percent expression of AR … in 48 hours” value (AR mRNA; 0.2 μM) was 90%. For the same sequence, the “Percent expression of AR … in 24 hours” value (AR mRNA; 1 μM) was 87%, the “Percent expression of AR … in 48 hours” value (AR mRNA; 1 μM) was 87% and the “Percent expression of AR … in 8 hours” value (AR mRNA; 5.0 μM) was 110%. The “Percent expression of AR … in 24 hours” value (AR mRNA; 5.0 μM) was 107%, the “Percent expression of AR … in 48 hours” value (AR mRNA; 5.0 μM) was 99% and the “Proliferation (% untreated control) in 22RV1 cells with 0.04 μM MDV-3100” value (22RV1 cells; ASO dose 0.4 nM + 0.04 μM MDV-3100) was 106 % untreated control. For the same sequence, the “Proliferation (% untreated control) in 22RV1 cells with 0.2 μM MDV-3100” value (22RV1 cells; ASO dose 0.4 nM + 0.2 μM MDV-3100) was 101 % untreated control, the “Proliferation (% untreated control) in 22RV1 cells with 1.0 μM MDV-3100” value (22RV1 cells; ASO dose 0.4 nM + 1.0 μM MDV-3100) was 106 % untreated control and the “Proliferation (% untreated control) in 22RV1 cells with 5.0 μM MDV-3100” value (22RV1 cells; ASO dose 0.4 nM + 5.0 μM MDV-3100) was 96 % untreated control. For the same sequence, the “Proliferation (% untreated control) in 22RV1 without MDV-3100” value (22RV1 cells; ASO dose 0.4 nM) was 109 % untreated control, the “Proliferation (% untreated control) in 22RV1 cells with 0.04 μM MDV-3100” value (22RV1 cells; ASO dose 1.34 nM + 0.04 μM MDV-3100) was 106 % untreated control and the “Proliferation (% untreated control) in 22RV1 cells with 0.2 μM MDV-3100” value (22RV1 cells; ASO dose 1.34 nM + 0.2 μM MDV-3100) was 115 % untreated control. For the same sequence, the “Proliferation (% untreated control) in 22RV1 cells with 1.0 μM MDV-3100” value (22RV1 cells; ASO dose 1.34 nM + 1.0 μM MDV-3100) was 95 % untreated control, the “Proliferation (% untreated control) in 22RV1 cells with 5.0 μM MDV-3100” value (22RV1 cells; ASO dose 1.34 nM + 5.0 μM MDV-3100) was 102 % untreated control and the “Proliferation (% untreated control) in 22RV1 without MDV-3100” value (22RV1 cells; ASO dose 1.34 nM) was 109 % untreated control. The “Proliferation (% untreated control) in 22RV1 cells with 0.04 μM MDV-3100” value (22RV1 cells; ASO dose 4.0 nM + 0.04 μM MDV-3100) was 100 % untreated control, the “Proliferation (% untreated control) in 22RV1 cells with 0.2 μM MDV-3100” value (22RV1 cells; ASO dose 4.0 nM + 0.2 μM MDV-3100) was 110 % untreated control and the “Proliferation (% untreated control) in 22RV1 cells with 1.0 μM MDV-3100” value (22RV1 cells; ASO dose 4.0 nM + 1.0 μM MDV-3100) was 98 % untreated control. The “Proliferation (% untreated control) in 22RV1 cells with 5.0 μM MDV-3100” value (22RV1 cells; ASO dose 4.0 nM + 5.0 μM MDV-3100) was 98 % untreated control, the “Proliferation (% untreated control) in 22RV1 without MDV-3100” value (22RV1 cells; ASO dose 4.0 nM) was 109 % untreated control and the “Proliferation (% untreated control) in 22RV1 cells with 0.04 μM MDV-3100” value (22RV1 cells; ASO dose 13.4 nM + 0.04 μM MDV-3100) was 85 % untreated control. For the same sequence, the “Proliferation (% untreated control) in 22RV1 cells with 0.2 μM MDV-3100” value (22RV1 cells; ASO dose 13.4 nM + 0.2 μM MDV-3100) was 96 % untreated control, the “Proliferation (% untreated control) in 22RV1 cells with 1.0 μM MDV-3100” value (22RV1 cells; ASO dose 13.4 nM + 1.0 μM MDV-3100) was 82 % untreated control and the “Proliferation (% untreated control) in 22RV1 cells with 5.0 μM MDV-3100” value (22RV1 cells; ASO dose 13.4 nM + 5.0 μM MDV-3100) was 85 % untreated control. For the same sequence, the “Proliferation (% untreated control) in 22RV1 without MDV-3100” value (22RV1 cells; ASO dose 13.4 nM) was 99 % untreated control, the “Percent inhibition of AR V7 variant” value (AR V7 variant mRNA; CSS + DHT medium, 1.34 nM) was 12% and the “Percent inhibition of AR V7 variant” value (AR V7 variant mRNA; CSS + DHT medium, 4.0 nM) was 0%. The “Percent inhibition of AR V7 variant” value (AR V7 variant mRNA; CSS + DHT medium, 13.4 nM) was 0%, the “Percent inhibition of AR V7 variant” value (AR V7 variant mRNA; CSS + DHT medium, 40 nM) was 5% and the “Percent inhibition of AR V7 variant” value (AR V7 variant mRNA; complete medium, 1.34 nM) was 0%. The “Percent inhibition of AR V7 variant” value (AR V7 variant mRNA; complete medium, 4.0 nM) was 8%, the “Percent inhibition of AR V7 variant” value (AR V7 variant mRNA; complete medium, 13.4 nM) was 0% and the “Percent inhibition of AR V7 variant” value (AR V7 variant mRNA; complete medium, 40 nM) was 14%. The Tumor volumes (MDA-MB-453 tumor; Day 0) was 148, the Tumor volumes (MDA-MB-453 tumor; Day 8) was 303 and the Tumor volumes (MDA-MB-453 tumor; Day 13) was 312. The Tumor volumes (MDA-MB-453 tumor; Day 20) was 365, the Tumor volumes (MDA-MB-453 tumor; Day 23) was 413 and the Tumor volumes (MDA-MB-453 tumor; Day 27) was 490. The Tumor volumes (MDA-MB-453 tumor; Day 29) was 550, the “Percent inhibition of TMPRSS2 expression in LNCaP cells cultured in CSS + DHT medium” value (from here on “Percent inhibition … in CSS + DHT medium”) (TMPRSS2 mRNA; 0.04 μM) was 0% and the “Percent inhibition … in CSS + DHT medium” value (TMPRSS2 mRNA; 0.2 μM) was 0%. The “Percent inhibition … in CSS + DHT medium” value (TMPRSS2 mRNA; 1 μM) was 1%, the “Percent inhibition … in CSS + DHT medium” value (TMPRSS2 mRNA; 5.0 μM) was 10% and the “Percent inhibition of TMPRSS2 expression in LNCaP cells cultured in complete medium” value (“Percent inhibition … in complete medium” below) (TMPRSS2 mRNA; 0.04 μM) was 0%. For the same sequence, the “Percent inhibition … in complete medium” value (TMPRSS2 mRNA; 0.2 μM) was 0%, the “Percent inhibition … in complete medium” value (TMPRSS2 mRNA; 1 μM) was 0% and the “Percent inhibition … in complete medium” value (TMPRSS2 mRNA; 5.0 μM) was 0%.
